For this assay, the system named is P388 leukemia ip, CD2F1 mice, survival T/C. Put plainly: NCI In Vivo Anticancer Drug Screen. Data for tumor model P388 Leukemia (intraperitoneal) in CD2F1 (CDF1) mice. The conditions noted are these: endpoint: median survival time, higher = longer survival. An outline of the steps:
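Mice carrying the transplanted tumor received test compound or vehicle. Survival was recorded in each group, and the value is the treated-group measurement divided by that of the vehicle-treated control group.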

Where [1] appears, read: dose: 60.0 mg/kg/injection, schedule: Q01DX005 (ip), vehicle: saline with Tween-80.
Setting [2] is: dose: 120.0 mg/kg/injection, schedule: Q01DX005 (ip), vehicle: saline with Tween-80.
Setting [3] is: dose: 240.0 mg/kg/injection, schedule: Q01DX005 (ip), vehicle: saline with Tween-80.
The mark [4] stands for this setting: dose: 50.0 mg/kg/injection, schedule: Q01DX005 (ip), vehicle: Klucel (hydroxypropylcellulose) (HPC).
The mark [5] stands for this setting: dose: 100.0 mg/kg/injection, schedule: Q01DX005 (ip), vehicle: Klucel (hydroxypropylcellulose) (HPC).
[6] abbreviates: dose: 200.0 mg/kg/injection, schedule: Q01DX005 (ip), vehicle: Klucel (hydroxypropylcellulose) (HPC).

Inconclusive results and toxic doses are left out.

For the compound `CCOC(=O)NSCC`, the T/C was 100 % of control (dose: 6.25 mg/kg/injection, schedule: Q01DX009 (ip), vehicle: saline); 103 % of control (dose: 12.5 mg/kg/injection, schedule: Q01DX009 (ip), vehicle: saline); 105 % of control (dose: 25.0 mg/kg/injection, schedule: Q01DX009 (ip), vehicle: saline).

On to `CCOC(=O)c1cnc2cc3c(cc2c1Nc1cccc(C)c1C)OCO3`, for which the T/C (dose: 60.0 mg/kg/injection, schedule: Q01DX005 (ip), vehicle: Klucel (hydroxypropylcellulose) (HPC)) is 101 % of control; the T/C (dose: 120.0 mg/kg/injection, schedule: Q01DX005 (ip), vehicle: Klucel (hydroxypropylcellulose) (HPC)) was 101 % of control; the T/C (dose: 240.0 mg/kg/injection, schedule: Q01DX005 (ip), vehicle: Klucel (hydroxypropylcellulose) (HPC)) is 95 % of control.

As to `C=C1C(=O)O[C@H]2CC3=CCC[C@H](C)[C@@]3(C)C[C@@H]12`, the T/C (dose: 2.25 mg/kg/injection, schedule: Q01DX005 (ip), vehicle: Klucel (hydroxypropylcellulose) (HPC)) was 100 % of control; the T/C (dose: 4.5 mg/kg/injection, schedule: Q01DX005 (ip), vehicle: Klucel (hydroxypropylcellulose) (HPC)) was 96 % of control; the T/C (dose: 9.0 mg/kg/injection, schedule: Q01DX005 (ip), vehicle: Klucel (hydroxypropylcellulose) (HPC)) is 99 % of control; the T/C (dose: 18.0 mg/kg/injection, schedule: Q01DX005 (ip), vehicle: Klucel (hydroxypropylcellulose) (HPC)) was 101 % of control; the T/C (dose: 36.0 mg/kg/injection, schedule: Q01DX005 (ip), vehicle: Klucel (hydroxypropylcellulose) (HPC)) was 99 % of control.

For the compound `O=C(O)c1c[nH]c2cc(OCCOc3ccc(F)cc3)ccc2c1=O`, the T/C reads like this: (dose: 100.0 mg/kg/injection, schedule: Q04DX003 (ip), vehicle: saline) 105 % of control; (dose: 200.0 mg/kg/injection, schedule: Q04DX003 (ip), vehicle: saline) 105 % of control; (dose: 400.0 mg/kg/injection, schedule: Q04DX003 (ip), vehicle: saline) 104 % of control.

`C/C(=N\NC(=S)N(C)C)c1ncccn1`: the T/C by setting is: (dose: 12.5 mg/kg/injection, schedule: Q04DX003 (ip), vehicle: Klucel (hydroxypropylcellulose) (HPC)) 107 % of control; (dose: 25.0 mg/kg/injection, schedule: Q04DX003 (ip), vehicle: Klucel (hydroxypropylcellulose) (HPC)) 103 % of control; (dose: 50.0 mg/kg/injection, schedule: Q04DX003 (ip), vehicle: Klucel (hydroxypropylcellulose) (HPC)) 105 % of control.

For `CC(C)Sc1nc2ccc(NC(=O)/C=C/C(=O)O)cc2s1`, the T/C by setting is: (dose: 50.0 mg/kg/injection, schedule: Q01DX009 (ip), vehicle: Klucel (hydroxypropylcellulose) (HPC)) 100 % of control; (dose: 100.0 mg/kg/injection, schedule: Q01DX009 (ip), vehicle: Klucel (hydroxypropylcellulose) (HPC)) 104 % of control; (dose: 200.0 mg/kg/injection, schedule: Q01DX009 (ip), vehicle: Klucel (hydroxypropylcellulose) (HPC)) 101 % of control.

On to `CC(C)C(O)(C(=O)OCC1=CCN2CCC(O)C12)C(C)O` (stereo not drawn), for which the T/C (dose: 50.0 mg/kg/injection, schedule: Q01DX005 (ip), vehicle: saline) is 103 % of control; the T/C (dose: 100.0 mg/kg/injection, schedule: Q01DX005 (ip), vehicle: saline) was 109 % of control; the T/C (dose: 200.0 mg/kg/injection, schedule: Q01DX005 (ip), vehicle: saline) was 117 % of control.

On to `CC(=NCCCCN=C(C)c1cc(C)cc([N+](=O)[O-])c1O)c1cc(C)cc([N+](=O)[O-])c1O.[Co]`, for which the T/C runs as follows: (dose: 100.0 mg/kg/injection, schedule: Q05DX002 (ip), vehicle: saline with Tween-80) 92 % of control; (dose: 200.0 mg/kg/injection, schedule: Q05DX002 (ip), vehicle: saline with Tween-80) 98 % of control; (dose: 400.0 mg/kg/injection, schedule: Q05DX002 (ip), vehicle: saline with Tween-80) 92 % of control.

For `CN(C)c1ccc2c(Cl)cc(=O)[nH]c2c1`, the T/C runs as follows: under setting [1], 97 % of control; under setting [2], 97 % of control; under setting [3], 97 % of control.

Take `Brc1cc(-c2ccccc2)on1`: the T/C is 108 % of control (dose: 100.0 mg/kg/injection, schedule: Q04DX003 (ip), vehicle: Klucel (hydroxypropylcellulose) (HPC)); 103 % of control (dose: 200.0 mg/kg/injection, schedule: Q04DX003 (ip), vehicle: Klucel (hydroxypropylcellulose) (HPC)); 105 % of control (dose: 400.0 mg/kg/injection, schedule: Q04DX003 (ip), vehicle: Klucel (hydroxypropylcellulose) (HPC)).

`C/C(=C/Cc1ccccc1)C(=O)O`: the T/C reads like this: (dose: 100.0 mg/kg/injection, schedule: Q01DX001 (ip), vehicle: saline with Tween-80) 108 % of control; (dose: 200.0 mg/kg/injection, schedule: Q01DX001 (ip), vehicle: saline with Tween-80) 108 % of control; (dose: 400.0 mg/kg/injection, schedule: Q01DX001 (ip), vehicle: saline with Tween-80) 99 % of control.

With `CCOc1ccccc1N=Nc1c(C)nn(C(=S)S)c1OCC`, the T/C by setting is: (dose: 60.0 mg/kg/injection, schedule: Q01DX005 (ip), vehicle: Klucel + Tween-80) 97 % of control; (dose: 120.0 mg/kg/injection, schedule: Q01DX005 (ip), vehicle: Klucel + Tween-80) 95 % of control; (dose: 240.0 mg/kg/injection, schedule: Q01DX005 (ip), vehicle: Klucel + Tween-80) 100 % of control.

Consider `O=C(Nc1ccc(Sc2ccc(N=Nc3c(O)c(S(=O)(=O)O)cc4cc(S(=O)(=O)O)ccc34)cc2)cc1)c1ccc(N=Nc2c(O)ccc3c(S(=O)(=O)O)cc(S(=O)(=O)O)cc23)cc1`, for which the T/C runs as follows: under setting [4], 102 % of control; under setting [5], 97 % of control; under setting [6], 109 % of control.

`CC1CN(C(=O)/C=C/C(=O)OC2CCCCC2)C(C)CN1C(=O)/C=C/C(=O)OC1CCCCC1` (stereo not drawn): the T/C was 98 % of control under setting [4], 94 % of control under setting [5] and 97 % of control under setting [6].

On to `CCOC1=Nc2ccccc2C1(C)CCO` (stereo not drawn), for which the T/C runs as follows: under setting [1], 96 % of control; under setting [2], 101 % of control; under setting [3], 96 % of control.

In the case of `CCC1=C[C@H]2CN(CCc3c([nH]c4ccccc34)[C@@](C(=O)OC)(c3cc4c(cc3OC)N(C)[C@H]3[C@@](O)(C(=O)OC)[C@H](OC(C)=O)[C@]5(CC)C=CCN6CC[C@]43[C@@H]65)C2)C1`, the T/C is 109 % of control (dose: 0.06 mg/kg/injection, schedule: Q01DX009 (ip), vehicle: water); 162 % of control (dose: 0.13 mg/kg/injection, schedule: Q01DX009 (ip), vehicle: water); 151 % of control (dose: 0.2 mg/kg/injection, schedule: Q01DX009 (ip), vehicle: saline); 106 % of control (dose: 0.25 mg/kg/injection, schedule: Q01DX009 (ip), vehicle: water); 163 % of control (dose: 0.4 mg/kg/injection, schedule: Q01DX009 (ip), vehicle: saline); 151 % of control (dose: 0.5 mg/kg/injection, schedule: Q04DX003 (ip), vehicle: water). In addition, the T/C (dose: 0.8 mg/kg/injection, schedule: Q01DX009 (ip), vehicle: saline) is 178 % of control; the T/C (dose: 1.0 mg/kg/injection, schedule: Q04DX003 (ip), vehicle: water) is 169 % of control; the T/C (dose: 2.0 mg/kg/injection, schedule: Q04DX003 (ip), vehicle: water) was 205 % of control; the T/C (dose: 4.0 mg/kg/injection, schedule: Q04DX003 (ip), vehicle: water) is 241 % of control; the T/C (dose: 8.0 mg/kg/injection, schedule: Q04DX003 (ip), vehicle: water) is 87 % of control.

As to `CS(=O)(=O)Nc1cccc2c1-c1ccccc1C2=O`, the T/C was 96 % of control under setting [4], 101 % of control under setting [5] and 88 % of control under setting [6].

Turning to `O=S(=O)(SC(S(=O)(=O)C12CC3CC(CC(C3)C1)C2)S(=O)(=O)C12CC3CC(CC(C3)C1)C2)C12CC3CC(CC(C3)C1)C2` (stereo not drawn), the T/C is 95 % of control (dose: 50.0 mg/kg/injection, schedule: Q01DX009 (ip), vehicle: saline with Tween-80); 105 % of control (dose: 100.0 mg/kg/injection, schedule: Q01DX009 (ip), vehicle: saline with Tween-80); 95 % of control (dose: 200.0 mg/kg/injection, schedule: Q01DX009 (ip), vehicle: saline with Tween-80).

Turning to `COc1cc2cc(-c3ccc4c(c3)OCO4)[n+](C)cc2cc1OC`, the T/C (dose: 6.25 mg/kg/injection, schedule: Q01DX001 (ip), vehicle: Klucel (hydroxypropylcellulose) (HPC)) is 100 % of control; the T/C (dose: 12.5 mg/kg/injection, schedule: Q01DX001 (ip), vehicle: Klucel (hydroxypropylcellulose) (HPC)) was 107 % of control; the T/C (dose: 25.0 mg/kg/injection, schedule: Q01DX001 (ip), vehicle: Klucel (hydroxypropylcellulose) (HPC)) is 110 % of control; the T/C (dose: 50.0 mg/kg/injection, schedule: Q01DX001 (ip), vehicle: Klucel (hydroxypropylcellulose) (HPC)) was 96 % of control.
